Experimental findings from ChEMBL document CHEMBL2406940, “Reactive oxygen species production by quercetin causes the death of Leishmania amazonensis intracellular amastigotes” (J Nat Prod, 2013) are described below.

The source made the active and inactive calls. The rule behind the calls is not given here.

The test system of test [1] is Peritoneal macrophage cell. Nature of the test: Induction of intracellular […] production in promastigotes of Leishmania amazonensis MHOM/BR/75/LTB0016 infected Swiss mouse peritoneal macrophages after 72 hrs by spectrofluorometric analysis. It is filed as functional, cell-based.
The test system of test [2] is Leishmania amazonensis. Nature of the test: Antileishmanial activity against promastigotes of Leishmania amazonensis MHOM/BR/75/LTB0016 infected in Swiss mouse peritoneal macrophages assessed as reduction of infection index after 72 hrs. It is filed as functional, organism-based.
For test [3], the system named is Leishmania amazonensis. Nature of the test: Antileishmanial activity against promastigotes of Leishmania amazonensis MHOM/BR/75/LTB0016 infected in Swiss mouse peritoneal macrophages assessed as parasite growth inhibition at 12 uM after 72 hrs. It is filed as functional. The following applies: MHOM/BR/75/LTB0016, 72 h, read-out: GI.
Test [4] concerns Peritoneal macrophage cell. Nature of the test: Induction of intracellular […] production in Swiss mouse peritoneal macrophages up to 12 uM after 72 hrs by spectrofluorometric analysis. It is filed as functional, cell-based.
A short description of test [5]: Cytotoxicity against Swiss mouse peritoneal macrophages after 72 hrs by AlamarBlue assay. It is filed as cell-based. The following applies: Peritoneal macrophage cell.
Test [6] is described as follows: Selectivity index, ratio of IC50 for Swiss mouse peritoneal macrophages to IC50 for promastigotes of Leishmania amazonensis MHOM/BR/75/LTB0016.
Test [7] relates to Peritoneal macrophage cell. Nature of the test: Induction of intracellular […] production in promastigotes of Leishmania amazonensis MHOM/BR/75/LTB0016 infected Swiss mouse peritoneal macrophages at 12 uM after 72 hrs by spectrofluorometric analysis relative to control. In kind it is functional.
The subject of test [8] is Leishmania amazonensis. Nature of the test: Antileishmanial activity against Leishmania amazonensis after 72 hrs. In kind it is functional, organism-based.

For the compound `O=c1c(O)c(-c2ccc(O)c(O)c2)oc2cc(O)cc(O)c12` [QUERCETIN], in test [1], the Activity entry is “Dose-dependent effect”. Further, the inhibition entry in the test on Leishmania amazonensis [2] was “Dose-dependent effect”. The IC50 with Leishmania amazonensis [2] (MHOM/BR/75/LTB0016, 72 h) is 3.4 µM; in test [5], 80.2 µM. For the same compound, the inhibition of growth at 12 µM with Leishmania amazonensis [3] was found to be 74.8%. In addition, in test [4], the outcome was inactive. In addition, in test [6], the “Ratio IC50” value was determined as 16.8. Further, the “fold change (FC)” value in test [7] is recorded as 1.5.

In the test on Leishmania amazonensis [8], `CCCCCCCCCCCCCCCCOP(=O)([O-])OCC[N+](C)(C)C` [MILTEFOSINE] had an IC50 of 3.2 µM.
